The values that follow come from paper PMC5114558, “Reader domain specificity and lysine demethylase-4 family function” (Nature Communications, 2016).

“Also recorded” adds a separate entry of the source.

Assay type in all cases: biochemical, human
Experiment [1] relates to KDM4B full-length protein. Put plainly: MS-based demethylation assay, full-length KDM4B. The conditions noted are these: 0.2 μM enzyme, 5–10 μM peptide, pH 7.5, 25 °C, MS read-out, single peptide substrates, Fig. 6a,b. As to the method: (§1) In a typical demethylase reaction, the assay mixture containing 50 mM Tris pH 7.5, 50 mM NaCl, 50 μM (NH4)2Fe(SO4)2, 0.5 mM ascorbic acid, 1 mM α-ketoglutarate and 0.2 μM full-length KDM4A–C (Active Motif) was mixed with 5–10 μM of trimethylated histone peptides (detailed sequence information in Supplementary Table 1). Each peptide concentration was quantified by measuring Abs280nm for peptides containing either tryptophan or tyrosine residue. After incubation of assay mixture at 25 °C for 10, 30 and 60 min time point, 10 μl of aliquot was transferred to a clean tube containing 5 μl of 5% formic acid to quench the reaction. Each quenched sample was treated with standard StageTip protocol using C18 extraction disk (Model 2215, Empore, 3 M) to remove excess salts and detergents in the reaction mixture. Each eluate from StageTip containing peptides was dried at a reduced pressure (vacuum centrifuge) and was re-suspended with 10 μl of 5% acetonitrile solution (0.1% formic acid). The 1 μl of the sample was injected at 0.7 μl min^−1 flow rate onto a Dionex Ultimate 3000 Nano LC system equipped with Atlantis dC18 NanoEase reverse-phase column (3 μm, 100 μm × 150 mm, Waters) and coupled to a hybrid quadrupole-orbitrap MS (Q-Exactive, Thermo Scientific). The peptide was eluted at 4–15 min retention time with a linear gradient of 2–35% acetonitrile (0.1% formic acid). All the solvents used for liquid chromatography MS were HPLC grade (Fisher). For each analysis, MS1 scan range of 300–1,100 m/z was used and data-dependent MS/MS was obtained to identify the site of demethylation. Each peptide peak and its area integration was performed on the XCalibur Qual Browser.

The subject of experiment [2] is KDM4B full-length protein. Put plainly: MS-based demethylation assay, 1:1 substrate competition, full-length KDM4B. The conditions noted are these: 1:1 (5 μM:5 μM) H3K36me3 and H3K23me3K36me3, 25 °C, P<0.01 (Fig. 6c). As to the method:
as §1, with “All the solvents used for liquid chromatography MS were HPLC grade (Fisher). For each analysis, MS1 scan range of 300–1,100 m/z was used and data-dependent MS/MS was obtained to identify the site of demethylation. Each peptide peak and its area integration was performed on the XCalibur Qual Browser.” left out

The test system of another experiment is KDM4A full-length. In words: MS-based demethylation assay, 1:1 substrate competition, full-length KDM4A. The conditions noted are these: 1:1 (5 μM:5 μM) H3K36me3 and H3K23me3K36me3, MS; Supplementary Fig. 7d-e. As to the method:
as §1, with “All the solvents used for liquid chromatography MS were HPLC grade (Fisher). For each analysis, MS1 scan range of 300–1,100 m/z was used and data-dependent MS/MS was obtained to identify the site of demethylation. Each peptide peak and its area integration was performed on the XCalibur Qual Browser.” left out

The next experiment has as its system KDM4C full-length. In words: MS-based demethylation assay, 1:1 substrate competition, full-length KDM4C. The note with it: 1:1 (5 μM:5 μM) H3K36me3 and H3K23me3K36me3, MS; Supplementary Fig. 7d-e. As to the method:
as §1, with “All the solvents used for liquid chromatography MS were HPLC grade (Fisher). For each analysis, MS1 scan range of 300–1,100 m/z was used and data-dependent MS/MS was obtained to identify the site of demethylation. Each peptide peak and its area integration was performed on the XCalibur Qual Browser.” left out

For the substance “H3K23me3K36me3: demethylation assay peptide, Tufts University Core Facility”, the “demethylation by full-length KDM4B” value in experiment [1] was “faster rates of H3K36me2 and H3K36me1 product formation”; in experiment [1] (listed as H3(20–42)K23me3K36me3), “increases H3K36me3 conversion to H3K36me1/2”. In addition, the “preferential demethylation by KDM4B in 1:1 mixture” value in experiment [2] is listed as “preferentially demethylates dually modified peptide; also recorded: preferentially demethylate H3K36me3 in the context of dually modified peptide”. Also, the “preferential demethylation by KDM4A in 1:1 mixture” value in the experiment on KDM4A full-length is “preferentially demethylates dually modified peptide; also recorded: enhanced for KDM4A and KDM4B but not KDM4C”. Besides, the “preferential demethylation by KDM4C in 1:1 mixture” value in the experiment on KDM4C full-length was “not KDM4C”.
